# Read-outs that look alike come from different tables or passages of the source.
# Key:
# [1] = system: L1210 wild type or 10K subcutaneous tumors; test: PET of subcutaneous L1210 wild type and 10K tumors; format: in vivo, SCID mice
# Method: To investigate whether [^18F]D-FAC PET can distinguish gemcitabine-sensitive cancer cells from the resistant cancer cells in vivo, mice were injected with L1210 wild type or 10K cells to establish subcutaneous tumors; mice were scanned with [^18F]FDG PET to confirm that implanted cells were viable and growing in vivo and [^18F]D-FAC PET scans were carried out to compare D-FAC accumulation in gemcitabine sensitive versus resistant cells. […] The mice were injected 4 days prior to imaging.
# Mice were challenged with the MoMSV onco-retrovirus.
# [2] = system: MoMSV-induced sarcomas; test: microPET/CT in oncoretrovirus (MoMSV) sarcoma model of anti-tumor immunity
# Method: All the mice used in these studies were bred and maintained according to the guidelines of the Department of Laboratory Animal Medicine (DLAM) at the University of California, Los Angeles. For the oncoretrovirus-induced sarcoma model, C57/BL6 mice were challenged intramuscularly in the right triceps with the Moloney murine sarcoma and leukemia virus complex (MoMSV) in a volume of 100 uL of PBS as described previously^6. B6-MRL-Fas^1pr/J mice used for systemic autoimmunity studies were purchased from the Jackson Laboratory (stock number 000482). To monitor the immunosuppressive treatment, these mice were given intraperitoneal injections of dexamethasone (DEX, 10 mg/kg) at 24 hr intervals and were scanned by microPET/CT 24 hr after the last injection. Animals were anesthetized with 2% isoflurane, injected intravenously with 200 microCi [^18F]D-FAC and then scanned with microPET/CT; mice were sacrificed immediately after imaging. Organs were rapidly excised, weighed, and the radioactivity was measured in a well counter. After decay correction, results were expressed as percent of the injected dose of activity per gram of tissue (% ID/g). Other mice were anesthetized with 2% isoflurane and injected intravenously with 1 mCi [^18F]D-FAC. After 1 hr, mice were euthanized, embedded in 3% carboxymethyl cellulose (CMC, Sigma), and frozen in 100% ethanol with dry ice for 45 min. The 50 micron sections were cut using a whole body cryostat, (PMV, Stockholm, Sweden); samples were exposed overnight on BAS-TR2025 plates (Fujifilm Life Science, Stamford, Conn.). Imaging plates were read using a Fujibas-5000 phosphorimager (16 bit, 25 micron resolution; Fujifilm Life Science).
# In this model, antigen-specific T cells primed by immunodominant epitopes encoded by viral gag and env genes rapidly expand in spleen and tumor draining lymph nodes (DLNs) and then traffic to the tumor lesion which is rejected over a period of 2-5 weeks^17,18. In fact, the kinetics of T cell responses against MoMSV-induced sarcomas have been studied extensively using conventional ex vivo approaches and our group has used PET reporter gene imaging to visualize tumor rejection in this model^17. To analyze whether the [^18F]D-FAC microPET/CT imaging can detect sites of localized immune activation, mice were scanned before and after the virus challenge.
# To determine whether [^18F]D-FAC can provide unique information regarding localized immune activation via the afore-mentioned model, the mice imaged by [^18F]D-FAC were also scanned on consecutive days using [^18F]FDG and [^18F]FLT.
# [3] = system: T lymphocytes from pmel-1 T cell receptor (TCR) transgenic mice; test: retention of ^3H-labeled nucleoside analogs in naïve and proliferating primary T cells; format: cell-based, mouse
# Method: In order to identify candidates for PET probes that can distinguish between activated T cells and non-activated, naïve T cells, we conducted a radioactive uptake assay, the results of which are shown in FIG. 1. […] These measurements were performed after incubating cells with radioactive compounds for 1 hr and performing successive washes to remove unincorporated probes. […] For example, we identified compounds #1 through #15 (see FIG. 2A for chemical structures) as PET probe candidates useful for detecting activated T cells. FIG. 2A presents substrates of dCK labeled with the ^18F positron emitting radioisotope.
# T lymphocytes from pmel-1 T cell receptor (TCR) transgenic mice were stimulated ex vivo using a melanoma antigen (1 micromolar hgp 10025-33). These cells were then cultured for radioactive uptake and kinase assays that were performed 72 hours post-stimulation. […] The plate was then washed 5 times with media containing 5% fetal calf serum (FCS) by using the Millipore Vacuum Manifold (Billerica, Mass.); the amount of incorporated probe was measured by scintillation counting using the PerkinElmer Microbeta (Waltham, Mass.). […]
# FIG. 1 identifies fluorinated deoxycytidine analogs retained in activated versus naive T lymphocytes and incorporated into DNA. […] Following successive washes, intracellular radioactivity was measured by scintillation counting. […]
# [4] = system: L1210 murine leukemia cells (dCK^+); test: radioactive tracer uptake assay, L1210 parental cells; format: cell-based; conditions: for dependence of retention and phosphorylation on dCK expression: L1210 wild type vs 10K cells, 1 hour incubation
# Description: (§1) To evaluate whether [^18F]D-FAC PET can determine resistance to gemcitabine and Ara-C, we used a previously described experimental model based on the L1210 murine leukemia cells and their gemcitabine/Ara-C resistant 10K derivatives^20. The molecular defect responsible for resistance in the L1210 10K cells is loss of dCK expression due to a genetic modification of chromosome 5 in the 3′ region of the dCK gene. The 10K cell line was derived by exposing the parental L1210 cells to increasing concentrations of gemcitabine^20; before experiments, we confirmed that L1210 10K cells lack expression of dCK at the protein level (FIG. 13). Thus, to determine whether D-FAC retention correlates with gemcitabine resistance in these cells, we performed radioactive tracer uptake assays using [^3H]D-FAC with [^3H]-FLT used as a negative control. We observed that the gemcitabine-resistant L1210-10K cell line retained much lower amounts of [^3H]D-FAC in contrast to the gemcitabine-sensitive L1210 parental cell line (FIG. 14A). In fact, [^3H]D-FAC uptake was 40-fold higher in dCK^+ cells compared to cells lacking dCK activity (dCK^+=1288 fmols/1×10^5 cells; dCK-=34 fmols/1×10^5 cells; p<0.001). In contrast, [^3H]FLT uptake was indistinguishable between these cell lines. FIG. 14B presents a [^3H]D-FAC kinase assay with the L1210 cell lines using [^3H]D-FAC as a substrate (1 microgram protein/reaction). In dCK positive cells shown in FIG. 14B, D-FAC phosphorylation was 52-fold higher than in dCK deficient cells (dCK^+=62 fmols; dCK^−=1.2 fmols; p=0.028). Reintroduction of dCK into the L1210-10K cells restored [^18F]D-FAC uptake and phosphorylation (FIG. 14), thus further confirming the critical role of this nucleoside kinase in regulating D-FAC metabolism.
# (§2) Each cell type was incubated separately with each of the following: [^18F]L-FAC, and [^18F]-CA, and the positive control [^18F]D-FAC. The cells were incubated with [^18F]L-FAC, [^18F]-CA, and [^18F]D-FAC for 1 hour. Following successive washes, intracellular radioactivity was measured by scintillation counting to obtain the result shown in FIG. 17A.
# [5] = chromatography of plasma after intravenous injection of probe (deamination); format: in vivo, C57BL/6 mouse; conditions: plasma 10 and 45 minutes after intravenous injection
# [6] = system: pancreatic inflammatory lesions; test: PET/CT scan of human with chronic pancreatitis; format: in vivo; conditions: person
# Description: FIG. 30 presents PET/CT scans of a human with chronic pancreatitis. The pancreas head 301 is visible.
# [7] = chromatography after incubation of probe with human plasma; conditions: 10 and 45 minutes incubation
# Method: FIG. 19 presents chromatographs of [^18F]D-FAC (FIG. 19C) and [^18F]L-FAC (FIG. 19D) in plasma 10 minutes and 45 minutes after the probe was incubated with human plasma.
# [8] = target: T1, deoxycytidine kinase (dCK) (Mus musculus, UniProt P43346); test: kinase assay with L1210 cell line lysates; format: biochemical, murine
# T1 construct: endogenous in cells; host or cells: L1210 murine leukemia cells (wild type), whole-cell lysate; L1210-10K (dCK-deficient) as negative control
# T1 sequence (P43346 whole entry): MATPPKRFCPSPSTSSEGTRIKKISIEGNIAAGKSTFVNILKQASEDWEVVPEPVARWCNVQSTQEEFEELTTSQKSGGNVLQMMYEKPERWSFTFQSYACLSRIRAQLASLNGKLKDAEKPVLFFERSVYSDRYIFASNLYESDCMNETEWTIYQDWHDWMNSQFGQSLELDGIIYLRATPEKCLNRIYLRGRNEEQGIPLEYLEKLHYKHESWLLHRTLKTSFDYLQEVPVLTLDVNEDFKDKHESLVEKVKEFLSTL
# Description: as §1, §2
# (§3) Lysates from L1210 wildtype (WT) and dCK deficient (10K) cells were incubated for 20 minutes with [^18F]L-FMAC; phosphorylated products were measured by scintillation counting.
# [9] = system: NIH3T3 fibroblasts engineered to overexpress nucleoside kinases (dCK) and the nucleoside transporter SLC29A1; test: [^3H]D-FAC uptake in engineered NIH3T3 fibroblasts; format: cell-based
# [10] = system: deoxycytidine kinase (dCK); test: kinase assay with L1210 cell line lysates; format: biochemical, murine; conditions: dCK^− cells; 1 microgram protein/reaction
# Description: as §1, §2, §3
# [11] = system: L1210-10K cell line (lacking dCK); test: radioactive tracer uptake assay, L1210-10K cells; format: cell-based, murine
# Description: To evaluate whether [^18F]D-FAC PET can determine resistance to gemcitabine and Ara-C, we used a previously described experimental model based on the L1210 murine leukemia cells and their gemcitabine/Ara-C resistant 10K derivatives^20. The molecular defect responsible for resistance in the L1210 10K cells is loss of dCK expression due to a genetic modification of chromosome 5 in the 3′ region of the dCK gene. The 10K cell line was derived by exposing the parental L1210 cells to increasing concentrations of gemcitabine^20; before experiments, we confirmed that L1210 10K cells lack expression of dCK at the protein level (FIG. 13). Thus, to determine whether D-FAC retention correlates with gemcitabine resistance in these cells, we performed radioactive tracer uptake assays using [^3H]D-FAC with [^3H]-FLT used as a negative control. We observed that the gemcitabine-resistant L1210-10K cell line retained much lower amounts of [^3H]D-FAC in contrast to the gemcitabine-sensitive L1210 parental cell line (FIG. 14A). […]
# Each cell type was incubated separately with each of the following: [^18F]L-FAC, and [^18F]-CA, and the positive control [^18F]D-FAC. […] Following successive washes, intracellular radioactivity was measured by scintillation counting to obtain the result shown in FIG. 17A.
# [12] = spleen, 60 min after intravenous injection, 3 mice
# [13] = C57/BL6, mouse, in vivo, iv, 60 min
molecule,measurement,setting,value
"2-[^18F]fluoro-2-deoxy-D-glucose [[^18F]FDG, reference compound]",accumulation in gemcitabine sensitive versus resistant cells,"[1]; mouse, in vivo",equivalent
same,retention in the brain and the myocardium,"mouse, in vivo",substantially accumulates
same,"Spleen, % ID/g per organ normalized to % ID/g muscle",[12],1.69 +/− 0.16 % ID/g per organ normalized to % ID/g muscle
same,accumulation in tumor over background (contralateral muscle tissue),[2]; tumor lesions,8.2±4.2 % ID/g tumor over background
"Cc1cn([C@H]2C[C@H](F)[C@@H](CO)O2)c(=O)[nH]c1=O [[^18F]FLT, 3′-fluoro-3′-deoxythymidine]","Spleen, % ID/g per organ normalized to % ID/g muscle",[13],1.02 +/− 0.21 % ID/g per organ normalized to % ID/g muscle
same,"Thymus, % ID/g per organ normalized to % ID/g muscle",[13],1.22 +/− 0.23 % ID/g per organ normalized to % ID/g muscle
same,accumulation in thymus and spleen,[13],neither [^18F]FLT nor [^18F]D-FMAU showed detectable accumulation
same,accumulation at sites of immune activation,[2]; day 14,no detectable
"Nc1ccn([C@@H]2O[C@H](CO)[C@@H](O)C2(F)F)c(=O)n1 [dFdC, 2′,2′-difluorodeoxycytidine, reference compound]",difference in probe retention by proliferating compared to naïve T cells,"[3]; 1 hr incubation, 72 hrs after stimulation",> 20 fold
"Cc1cn([C@@H]2O[C@H](CO)[C@@H](O)[C@@H]2F)c(=O)[nH]c1=O [[^18F]FMAU, 1-(2′-Deoxy-2′-fluoro-β-D-arabinofuranosyl)-5-methyluracil]",accumulation in thymus and spleen,60 min after intravenous injection,neither [^18F]FLT nor [^18F]D-FMAU showed detectable accumulation
same,"Spleen, % ID/g per organ normalized to % ID/g muscle",[12],1.08 +/− 0.27 % ID/g per organ normalized to % ID/g muscle
same,"Thymus, % ID/g per organ normalized to % ID/g muscle","thymus, 60 min after intravenous injection, 3 mice",1.33 +/− 0.24 % ID/g per organ normalized to % ID/g muscle
"Nc1nc(Cl)nc2c1ncn2[C@@H]1O[C@H](CO)[C@@H](O)[C@@H]1[18F] [[^18F]-CA, 2-chloro-9-(2′-deoxy-2′-[^18F]fluoro-β-D-arabinofuranosyl)adenine]",dependence of retention and phosphorylation on dCK expression,[4],requires dCK expression
"Nc1ccn([C@H]2O[C@@H](CO)[C@H](O)[C@H]2[18F])c(=O)n1 [[^18F]L-FAC, 1-(2′-deoxy-2′-[^18F]fluoro-β-L-arabinofuranosyl)cytosine]",resistance to deamination in plasma after injection into mice,[5],more resistant to deamination than [^18F]D-FAC
same,accumulation in pancreatic inflammatory lesions,[6],clear accumulation
same,"retention/visualization in dCK deficient, gemcitabine resistant tumors","[1]; L1210-10K, 4 days after injection",not visualization
same,"retention/visualization in dCK positive, gemcitabine sensitive tumors","[1]; L1210 WT, 4 days after injection",allows visualization
same,stability in human plasma,[7],improved stability relative to [^18F]D-FAC
same,biodistribution compared with [^18F]D-FAC,60 minutes after intravenous injection,resembles that of [^18F]D-FAC
same,dependence of retention and phosphorylation on dCK expression,[4],requires dCK expression
Cc1cn([C@H]2O[C@@H](CO)[C@H](O)[C@H]2[18F])c(=O)nc1N [[^18F]L-FMAC],resistance to deamination in plasma after injection into mice,[5],resistant to deamination
same,dependence of retention and phosphorylation on dCK expression,"[8]; L1210 WT and 10K lysates, 20 minutes incubation",requires dCK expression
"Cc1cn([C@H]2C[C@H](F)[C@@H](CO)O2)c(=O)[nH]c1=O [[^3H]FLT, 3′-fluoro-3′-deoxythymidine, reference compound]",uptake compared between L1210 and L1210-10K cell lines,[4]; negative control,indistinguishable
"Nc1ccn(C2O[C@H](CO)[C@@H](O)[C@@H]2F)c(=O)n1 (stereo partly drawn) [[^3H]D-FAC, 1-(2′-deoxy-2′-fluoro-arabinofuranosyl) cytosine]",uptake in cells overexpressing dCK and SLC29A1,[9],increased uptake
same,incorporation into DNA of proliferating T cells,[3],incorporated in the DNA
same,phosphorylation,"[8]; dCK^+ cells, 1 microgram protein/reaction",62 fmols
same,phosphorylation in dCK positive cells versus dCK deficient cells,[8]; p=0.028,52 fold
same,phosphorylation,[10],1.2 fmols
same,uptake,[4]; dCK^+ cells,1288 fmols/1×10^5 cells
same,uptake in dCK^+ cells compared to cells lacking dCK activity,[4]; p<0.001,40 fold
same,uptake,[11],34 fmols/1×10^5 cells
